# Test results published in patent US12162811B2, “F-18 labeled chiral pure derivative of hydroxyfuran, preparation method and use thereof” (The First Affiliated Hospital of Sun Yat-sen University, priority 2022, dated 2024).
# “Also recorded” adds a separate entry of the source.
# Columns and labels:
# HCT8 xenograft tumor = assay: micro-PET/CT imaging of tumor-bearing nude mice after intratumoral or tail vein injection; format: in vivo, nude mouse; settings: for SUVmax in the tumor: 5 min after injection; for SUVmax of the tumors: 1 h
# Procedure: A nude mouse model with HCT8 xenograft tumor was established, and dynamic imaging was performed after intratumoral injection upon anesthesia of the tumor-bearing mice: 0.1 mL (about 100 μCi) of the solution prepared automatically with saline dilution with or without supersaturated sodium ascorbate was taken from a 1 mL syringe needle, and the solution was injected intratumorally into the nude mice model with an automatic syringe pump at 0.1 mL/min, and a dynamic 1-h microPET/CT imaging was performed. Delayed imaging was performed: statically imaged 2 h after injection.
# Static micro-PET/CT imaging was performed 1 hour after tail vein injection in the anesthetized tumor-bearing mice.
# tumor lesions = assay: whole-body dynamic PET/CT imaging of tumor patients; format: in vivo, human
# Procedure: Six patients with different tumors fasted and urinated for at least 6 hours prior to receiving PET/CT scanning, approximately 5, 13, 30, 45 and 60 minutes after injection of (4R, 5R)[^18F]FAA (mean 448±113 MBq), the five consecutive whole-body dynamic PET/CT scanning was conducted for each participant using a uMI 780 scanner (United Imaging Healthcare) or Discovery MI scanner (GE Healthcore). The CT acquisition parameters of the uMI 780 scanner were 120 kV, smart 100-200 mAs, detector coverage of 40 mm, spacing of 0.9875, slice thickness of 1.0 mm, and rotation time of 0.5 s. The PET emission scan time was 1.5 min per bed with 6 beds covering the scanning area. Finally, the PET images were reconstructed by the regularized ordered subset expectation maximization algorithm (R-OSEM, UNITED IMAGING) with attenuation normalization using ACCT images. The CT acquisition parameters of the Discovery MI scanner were 120 kV, smart 120-180 mA, detector coverage of 40 mm, slice thickness of 0.625 mm, pitch to speed of 0.984:1, 39.37 and rotation time of 0.6 s. The PET emission scanning time was 1 min per bed with 6 to 8 beds covering the scanning area. Finally, the PET images were reconstructed by a Bayesian penalized likelihood (BPL) reconstruction algorithm (Q.clear, GE Healthcare) and attenuation nominalization was performed using ACCT images. Urine samples were collected after the last PET/CT scan and total radioactivity of the urine was assessed.
# [1] = biodistribution in human body (ROI time-activity profiles of source organs); format: in vivo
# Excerpt: For the 6 sets of images obtained by Example 5, the ROI was depicted in the whole body images at the first time point and replicated to subsequent time point scans so as to determine the cumulative radioactivity in each source organ. The genital volume was manually adjusted if necessary. Major source organs include brain, thyroid, lung, heart wall, liver, gallbladder, stomach, adrenals, kidneys, pancreas, spleen, uterus (female only), testes (male only), and bone marrow. The biodistribution analysis included muscle and the absorbed dose analysis included bladder. Spinal ROIs were plotted as an alternative to the red bone marrow. Time-activity profiles were derived from each ROI, and cumulative radioactivity for each source organ was expressed as a percentage of the injected dose (% ID).
# [2] = radiometrics: residence times and radiation absorbed dose (MIRD); format: in vivo, human
# Procedure: For the six sets of data obtained through Example 6, the residence times were calculated as the area under each time-activity curve by curve fitting with either a mono-or bi-exponential function model. The residence times of the bladder were generated by the integration of the time-activity curve from zero time to the last emission scan time plus the integration of the function from the last scan time to infinity (physical decay only). These residence times are then used for radiation absorbed dose calculations. The radiation absorbed dose was calculated for each subject using the Medical Internal Radiation Dose (MIRD) algorithm. The absorbed dose in the target area specified by MIRD was calculated according to the standardized Cristy Eckerman 70 kg adult male model, and the effective dose was assessed according to the tissue weighting factors in the publication of International Commission on Radiological Protection.
# [3] = comparison PET tracer; cited from earlier work
# [4] = intratumoral injection, with supersaturated sodium ascorbate
# [5] = intratumoral injection, without supersaturated sodium ascorbate
compound,measurement,setting,value
"O=C1O[C@H]([C@@H](O)C[18F])C(O)=C1O [(4R, 5R)[^18F]FAA]",effect of added supersaturated sodium ascorbate on metabolism of the tracer in the liver,"HCT8 xenograft tumor; intratumoral injection, dynamic imaging",significantly inhibited
same,SUVmax in the tumor,HCT8 xenograft tumor; [4],165 % ID/g
same,SUVmax of the tumors,HCT8 xenograft tumor; [4],45 % ID/g
same,SUVmax in the tumor,HCT8 xenograft tumor; [5],88 % ID/g
same,SUVmax of the tumors,HCT8 xenograft tumor; [5],34 % ID/g
same,"SUVmax of tumors, delayed imaging","HCT8 xenograft tumor; intratumoral injection, without supersaturated sodium ascorbate, 2 h after injection",35 % ID/g
same,SUVmax of the tumors,HCT8 xenograft tumor; tail vein injection,6.3 % ID/g
same,uptake in tumors,HCT8 xenograft tumor; tumor-bearing mice,certain tumor uptake; also recorded: high uptake in tumors
same,metastases detected,tumor lesions; 6 patients,168
same,primary lesions detected,tumor lesions; 6 patients,2
same,mean SUVmax in all tumor lesions,"tumor lesions; 6 patients, all tumor lesions",6.89±3.82
same,median SUVmax in all tumor lesions,"tumor lesions; 6 patients, all tumor lesions",6.07
same,range of SUVmax in all tumor lesions,"tumor lesions; 6 patients, all tumor lesions",1.62-22.85
same,tumor radioactivity uptake,tumor lesions; kidney cancer and intestinal cancer patients,average tumor radioactivity uptake
same,uptake in primary and metastatic tumor foci,tumor lesions; thyroid cancer and lung cancer,very high uptake
same,safety in humans,tumor lesions; tumor patients,safe for use in humans
same,uptake in tumors,tumor lesions; tumor patients,high uptake in tumors
same,"uptake in liver, adrenal glands, choroid plexus, pituitary gland and thyroid (exception of the kidney)",[1]; 1 h after injection,high uptake
same,"uptake in heart, muscle and brain",[1]; during the imaging phase,low
same,"uptake in liver, adrenal glands, kidneys, choroid plexus, pituitary gland and thyroid","[1]; earliest imaging time point, most subjects",high uptake
same,route of excretion,[1]; human,excreted mainly through the kidneys to the bladder
same,"uptake in spleen, intestine, salivary glands and bone marrow",[1]; slow clearance over time,moderate uptake
same,mean effective dose (ED),[2]; ICRP tissue weighting factors,1.68±0.36E-02 mSv/MBq
same,absorbed dose,[2]; adrenal gland,1.89±0.61E-02 mGy/MBq
same,residence time,[2]; bladder wall,1.16±0.54E-03 hours
same,absorbed dose,[2]; brain,4.88±1.21E-03 mGy/MBq
same,absorbed dose,[2]; kidney,1.87±0.38E-02 mGy/MBq
same,residence time,[2]; kidney,1.77±0.53 E-03 hours
same,absorbed dose,[2]; liver,3.42±0.75E-02 mGy/MBq
same,residence time,[2]; liver,22.5±4.94 E-02 hours
same,residence time,[2]; lung,3.18±0.49 E-02 hours
same,absorbed dose,[2]; spleen,2.95±1.70E-02 mGy/MBq
same,residence time,[2]; spleen,2.19±1.59 E-02 hours
same,residence time,[2]; thymus,2.74±1.37E-05 h
same,mean systemic absorbed dose,[2]; whole body,6.54±1.58E-03 mSv/MBq
[^18F]FDG,systemic absorbed effective dose,[3],1.90±0.36 E-02 mSv/MBq
